From ChEMBL document CHEMBL3991601, “The target landscape of clinical kinase drugs” (Science, 2017)
The source made the active and inactive calls. On the calls: in the data inactive means no Kd found up to 30 µM.

These compounds were tested against G protein-coupled receptor kinase 6 (Homo sapiens, UniProt P43250).
Chain of G protein-coupled receptor kinase 6 (P43250 whole entry): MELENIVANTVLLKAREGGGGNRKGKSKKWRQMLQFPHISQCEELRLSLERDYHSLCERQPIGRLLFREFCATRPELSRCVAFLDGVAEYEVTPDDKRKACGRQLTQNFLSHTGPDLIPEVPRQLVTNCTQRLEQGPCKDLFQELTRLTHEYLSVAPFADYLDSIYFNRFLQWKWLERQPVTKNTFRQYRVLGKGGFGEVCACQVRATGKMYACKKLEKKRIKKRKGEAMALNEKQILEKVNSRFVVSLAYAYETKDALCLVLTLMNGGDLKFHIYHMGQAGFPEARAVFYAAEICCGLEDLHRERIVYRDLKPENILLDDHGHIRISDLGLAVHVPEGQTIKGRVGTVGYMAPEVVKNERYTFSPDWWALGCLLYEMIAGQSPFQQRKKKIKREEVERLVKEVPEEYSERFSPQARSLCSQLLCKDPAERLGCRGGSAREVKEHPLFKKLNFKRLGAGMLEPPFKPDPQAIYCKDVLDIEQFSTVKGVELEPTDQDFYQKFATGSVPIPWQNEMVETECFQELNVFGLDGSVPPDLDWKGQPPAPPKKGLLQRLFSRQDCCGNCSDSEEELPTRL
In the case of COc1cc(OC)c(/C=C/S(=O)(=O)Cc2ccc(OC)c(NCC(=O)O)c2)c(OC)c1 [RIGOSERTIB], the Kd is reported as > 30 µM (inactive). In the case of C[C@@H]1CN(Cc2ccc(F)cc2)[C@@H](C)CN1C(=O)c1cc2c(C(=O)C(=O)N(C)C)cn(C)c2cc1Cl [TALMAPIMOD], the Kd is reported as > 30 µM (inactive). With CN1CCC(COc2cnc(-c3cccc(Cn4nc(-c5cccc(C#N)c5)ccc4=O)c3)nc2)CC1 [TEPOTINIB] the Kd was > 30 µM (inactive). COc1cc2nccc(Oc3ccc(NC(=O)Nc4cc(C)on4)c(Cl)c3)c2cc1OC [TIVOZANIB] was tested, and the Kd was > 30 µM (inactive).

What follows are compounds tested against T1, Eukaryotic translation initiation factor 5B (Homo sapiens, UniProt O60841).
T1 sequence (O60841 whole entry): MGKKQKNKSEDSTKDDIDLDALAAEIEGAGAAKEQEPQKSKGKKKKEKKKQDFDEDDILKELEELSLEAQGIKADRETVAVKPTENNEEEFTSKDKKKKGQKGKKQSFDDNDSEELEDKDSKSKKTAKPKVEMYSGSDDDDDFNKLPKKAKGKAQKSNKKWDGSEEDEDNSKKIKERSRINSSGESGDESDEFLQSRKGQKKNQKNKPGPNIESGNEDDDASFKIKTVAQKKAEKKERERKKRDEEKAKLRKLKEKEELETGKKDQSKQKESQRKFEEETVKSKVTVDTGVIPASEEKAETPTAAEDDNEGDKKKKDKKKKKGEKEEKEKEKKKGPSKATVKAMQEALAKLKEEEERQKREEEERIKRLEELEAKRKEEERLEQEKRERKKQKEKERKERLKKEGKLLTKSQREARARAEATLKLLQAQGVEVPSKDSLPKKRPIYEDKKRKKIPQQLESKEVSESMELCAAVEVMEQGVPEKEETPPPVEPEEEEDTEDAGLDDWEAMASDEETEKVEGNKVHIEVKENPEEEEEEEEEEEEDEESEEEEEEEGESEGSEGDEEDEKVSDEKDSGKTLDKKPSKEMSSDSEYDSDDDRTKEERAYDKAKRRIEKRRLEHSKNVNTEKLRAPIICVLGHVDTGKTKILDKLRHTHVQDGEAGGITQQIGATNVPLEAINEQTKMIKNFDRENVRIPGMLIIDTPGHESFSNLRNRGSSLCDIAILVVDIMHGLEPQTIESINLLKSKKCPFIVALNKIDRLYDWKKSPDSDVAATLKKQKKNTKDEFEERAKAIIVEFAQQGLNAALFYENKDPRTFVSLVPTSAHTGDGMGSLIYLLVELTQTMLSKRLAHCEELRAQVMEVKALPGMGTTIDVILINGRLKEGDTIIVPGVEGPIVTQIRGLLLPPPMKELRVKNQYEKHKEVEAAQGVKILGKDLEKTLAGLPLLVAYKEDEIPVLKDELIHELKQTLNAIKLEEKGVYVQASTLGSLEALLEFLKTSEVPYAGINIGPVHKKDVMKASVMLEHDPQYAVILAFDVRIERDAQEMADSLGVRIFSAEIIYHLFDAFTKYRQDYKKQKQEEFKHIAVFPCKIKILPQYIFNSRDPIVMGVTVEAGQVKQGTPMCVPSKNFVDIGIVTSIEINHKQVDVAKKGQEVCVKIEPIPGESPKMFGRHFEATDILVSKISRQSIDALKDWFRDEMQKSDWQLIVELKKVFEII
For COc1cc(OC)c(/C=C/S(=O)(=O)Cc2ccc(OC)c(NCC(=O)O)c2)c(OC)c1 [RIGOSERTIB], the Kd was > 30 µM (inactive). With CN1CCC(COc2cnc(-c3cccc(Cn4nc(-c5cccc(C#N)c5)ccc4=O)c3)nc2)CC1 [TEPOTINIB] the Kd was > 30 µM (inactive). COc1cc2nccc(Oc3ccc(NC(=O)Nc4cc(C)on4)c(Cl)c3)c2cc1OC [TIVOZANIB] was tested, and the Kd was > 30 µM (inactive).

Each compound was assayed against Myosin-10 (Homo sapiens, UniProt P35580).
With COc1cc(OC)c(/C=C/S(=O)(=O)Cc2ccc(OC)c(NCC(=O)O)c2)c(OC)c1 [RIGOSERTIB] the Kd was > 30 µM (inactive). For COc1cc2nccc(Oc3ccc(NC(=O)Nc4cc(C)on4)c(Cl)c3)c2cc1OC [TIVOZANIB], the Kd was > 30 µM (inactive).

Each compound was assayed against PAS domain-containing serine/threonine-protein kinase (Homo sapiens, UniProt Q96RG2).
Chain of PAS domain-containing serine/threonine-protein kinase (Q96RG2 whole entry, the tested form may be a part): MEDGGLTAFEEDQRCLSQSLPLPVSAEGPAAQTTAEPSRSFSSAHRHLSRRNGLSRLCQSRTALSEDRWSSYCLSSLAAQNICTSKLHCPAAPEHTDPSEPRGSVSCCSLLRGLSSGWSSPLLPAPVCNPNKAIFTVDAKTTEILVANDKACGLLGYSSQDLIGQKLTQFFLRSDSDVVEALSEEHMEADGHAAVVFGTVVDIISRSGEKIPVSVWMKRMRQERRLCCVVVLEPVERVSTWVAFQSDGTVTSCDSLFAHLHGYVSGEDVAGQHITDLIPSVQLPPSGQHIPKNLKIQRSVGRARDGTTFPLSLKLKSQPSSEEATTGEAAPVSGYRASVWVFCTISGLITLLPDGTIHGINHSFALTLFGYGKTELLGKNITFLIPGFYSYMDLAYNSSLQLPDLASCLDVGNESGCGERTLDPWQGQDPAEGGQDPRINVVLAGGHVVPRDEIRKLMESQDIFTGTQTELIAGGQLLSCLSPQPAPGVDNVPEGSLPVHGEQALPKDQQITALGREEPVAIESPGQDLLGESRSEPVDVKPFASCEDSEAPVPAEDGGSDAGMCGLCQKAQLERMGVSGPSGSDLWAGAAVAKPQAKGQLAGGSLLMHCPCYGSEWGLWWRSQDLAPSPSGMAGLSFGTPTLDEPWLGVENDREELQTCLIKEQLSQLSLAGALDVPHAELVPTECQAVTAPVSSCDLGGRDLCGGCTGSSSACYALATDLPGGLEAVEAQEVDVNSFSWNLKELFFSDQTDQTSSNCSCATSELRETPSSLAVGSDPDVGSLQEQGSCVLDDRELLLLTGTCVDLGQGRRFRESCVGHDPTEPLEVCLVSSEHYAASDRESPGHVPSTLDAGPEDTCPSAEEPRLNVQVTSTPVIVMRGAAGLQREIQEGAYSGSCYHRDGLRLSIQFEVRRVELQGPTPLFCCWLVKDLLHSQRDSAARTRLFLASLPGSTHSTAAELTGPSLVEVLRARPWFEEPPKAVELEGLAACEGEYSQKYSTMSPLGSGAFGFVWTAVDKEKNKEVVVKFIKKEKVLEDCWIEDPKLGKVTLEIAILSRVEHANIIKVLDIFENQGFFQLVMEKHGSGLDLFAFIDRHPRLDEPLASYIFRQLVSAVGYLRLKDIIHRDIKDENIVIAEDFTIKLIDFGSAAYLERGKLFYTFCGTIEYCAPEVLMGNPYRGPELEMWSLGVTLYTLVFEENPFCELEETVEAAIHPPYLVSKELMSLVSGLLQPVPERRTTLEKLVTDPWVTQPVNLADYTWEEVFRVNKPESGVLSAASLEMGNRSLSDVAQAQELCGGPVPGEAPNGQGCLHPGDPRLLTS
In the case of COc1cc(OC)c(/C=C/S(=O)(=O)Cc2ccc(OC)c(NCC(=O)O)c2)c(OC)c1 [RIGOSERTIB], the Kd is reported as > 30 µM (inactive). For C[C@@H]1CN(Cc2ccc(F)cc2)[C@@H](C)CN1C(=O)c1cc2c(C(=O)C(=O)N(C)C)cn(C)c2cc1Cl [TALMAPIMOD], the Kd was > 30 µM (inactive). With CN1CCC(COc2cnc(-c3cccc(Cn4nc(-c5cccc(C#N)c5)ccc4=O)c3)nc2)CC1 [TEPOTINIB] the Kd was > 30 µM (inactive). With COc1cc2nccc(Oc3ccc(NC(=O)Nc4cc(C)on4)c(Cl)c3)c2cc1OC [TIVOZANIB] the Kd was > 30 µM (inactive).

Each compound was assayed against T2, Adenine phosphoribosyltransferase (Homo sapiens, UniProt P07741).
T2 sequence (P07741 whole entry): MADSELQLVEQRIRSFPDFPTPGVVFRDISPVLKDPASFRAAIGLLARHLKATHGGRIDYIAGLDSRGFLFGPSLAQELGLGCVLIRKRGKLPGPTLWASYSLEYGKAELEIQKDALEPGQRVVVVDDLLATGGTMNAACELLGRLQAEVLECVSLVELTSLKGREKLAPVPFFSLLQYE
For C[C@@H]1CN(Cc2ccc(F)cc2)[C@@H](C)CN1C(=O)c1cc2c(C(=O)C(=O)N(C)C)cn(C)c2cc1Cl [TALMAPIMOD], the Kd was > 30 µM (inactive). With CN1CCC(COc2cnc(-c3cccc(Cn4nc(-c5cccc(C#N)c5)ccc4=O)c3)nc2)CC1 [TEPOTINIB] the Kd was > 30 µM (inactive). In the case of COc1cc2nccc(Oc3ccc(NC(=O)Nc4cc(C)on4)c(Cl)c3)c2cc1OC [TIVOZANIB], the Kd is reported as > 30 µM (inactive).

Each compound was assayed against Dual specificity testis-specific protein kinase 2 (Homo sapiens, UniProt Q96S53).
Chain of Dual specificity testis-specific protein kinase 2 (Q96S53 whole entry): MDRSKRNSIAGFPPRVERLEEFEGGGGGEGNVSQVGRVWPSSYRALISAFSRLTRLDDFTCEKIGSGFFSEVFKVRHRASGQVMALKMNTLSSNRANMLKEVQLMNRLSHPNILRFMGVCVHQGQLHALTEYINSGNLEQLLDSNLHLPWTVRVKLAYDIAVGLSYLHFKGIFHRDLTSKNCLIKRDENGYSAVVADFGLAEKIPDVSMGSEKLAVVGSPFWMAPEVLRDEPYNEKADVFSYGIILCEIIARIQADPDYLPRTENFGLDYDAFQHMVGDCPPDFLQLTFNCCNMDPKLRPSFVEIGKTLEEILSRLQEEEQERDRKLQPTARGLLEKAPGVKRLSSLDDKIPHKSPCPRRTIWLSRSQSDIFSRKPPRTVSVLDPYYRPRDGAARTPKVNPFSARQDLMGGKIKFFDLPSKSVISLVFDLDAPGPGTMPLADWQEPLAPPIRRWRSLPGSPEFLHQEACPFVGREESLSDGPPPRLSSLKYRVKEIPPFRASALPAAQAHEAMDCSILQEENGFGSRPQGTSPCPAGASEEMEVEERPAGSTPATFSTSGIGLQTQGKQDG
For COc1cc(OC)c(/C=C/S(=O)(=O)Cc2ccc(OC)c(NCC(=O)O)c2)c(OC)c1 [RIGOSERTIB], the Kd was > 30 µM (inactive). C[C@@H]1CN(Cc2ccc(F)cc2)[C@@H](C)CN1C(=O)c1cc2c(C(=O)C(=O)N(C)C)cn(C)c2cc1Cl [TALMAPIMOD] was tested, and the Kd was > 30 µM (inactive). For CN1CCC(COc2cnc(-c3cccc(Cn4nc(-c5cccc(C#N)c5)ccc4=O)c3)nc2)CC1 [TEPOTINIB], the Kd was > 30 µM (inactive). For COc1cc2nccc(Oc3ccc(NC(=O)Nc4cc(C)on4)c(Cl)c3)c2cc1OC [TIVOZANIB], the Kd was > 30 µM (inactive).

The compounds below were run against Serine/threonine-protein kinase 24 (Homo sapiens, UniProt Q9Y6E0).
Chain of Serine/threonine-protein kinase 24 (Q9Y6E0 whole entry): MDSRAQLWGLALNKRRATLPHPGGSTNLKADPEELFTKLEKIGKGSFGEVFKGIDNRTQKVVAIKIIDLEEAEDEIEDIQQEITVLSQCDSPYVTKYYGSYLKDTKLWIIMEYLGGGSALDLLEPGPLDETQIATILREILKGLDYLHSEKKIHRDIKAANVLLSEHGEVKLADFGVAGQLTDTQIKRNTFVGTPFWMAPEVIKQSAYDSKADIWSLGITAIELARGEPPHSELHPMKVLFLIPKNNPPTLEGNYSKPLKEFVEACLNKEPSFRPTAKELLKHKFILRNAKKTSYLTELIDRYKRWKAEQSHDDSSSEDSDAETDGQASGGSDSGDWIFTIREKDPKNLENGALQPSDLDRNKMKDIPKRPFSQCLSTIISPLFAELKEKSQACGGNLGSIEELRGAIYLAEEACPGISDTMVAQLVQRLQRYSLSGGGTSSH
For COc1cc(OC)c(/C=C/S(=O)(=O)Cc2ccc(OC)c(NCC(=O)O)c2)c(OC)c1 [RIGOSERTIB], the Kd was > 30 µM (inactive). In the case of COc1cc2nccc(Oc3ccc(NC(=O)Nc4cc(C)on4)c(Cl)c3)c2cc1OC [TIVOZANIB], the Kd is reported as > 30 µM (inactive).

What follows are compounds tested against Uncharacterized aarF domain-containing protein kinase 5 (Homo sapiens, UniProt Q3MIX3).
Chain of Uncharacterized aarF domain-containing protein kinase 5 (Q3MIX3 whole entry, the tested form may be a part): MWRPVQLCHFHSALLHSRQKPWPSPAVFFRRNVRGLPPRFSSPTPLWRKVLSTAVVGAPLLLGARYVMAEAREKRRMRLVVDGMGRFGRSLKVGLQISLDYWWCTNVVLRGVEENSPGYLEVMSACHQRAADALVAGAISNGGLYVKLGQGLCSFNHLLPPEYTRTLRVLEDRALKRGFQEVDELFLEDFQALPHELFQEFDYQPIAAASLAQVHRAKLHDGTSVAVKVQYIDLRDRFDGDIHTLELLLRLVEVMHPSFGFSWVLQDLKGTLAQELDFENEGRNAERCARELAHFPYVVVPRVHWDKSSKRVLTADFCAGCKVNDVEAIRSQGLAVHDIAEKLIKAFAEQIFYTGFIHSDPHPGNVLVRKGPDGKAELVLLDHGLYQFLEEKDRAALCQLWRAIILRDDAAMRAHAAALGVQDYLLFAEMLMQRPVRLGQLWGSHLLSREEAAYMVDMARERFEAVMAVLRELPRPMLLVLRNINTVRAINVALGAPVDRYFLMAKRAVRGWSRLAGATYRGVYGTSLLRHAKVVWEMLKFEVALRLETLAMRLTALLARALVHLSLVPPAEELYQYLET
For COc1cc(OC)c(/C=C/S(=O)(=O)Cc2ccc(OC)c(NCC(=O)O)c2)c(OC)c1 [RIGOSERTIB], the Kd was > 30 µM (inactive). C[C@@H]1CN(Cc2ccc(F)cc2)[C@@H](C)CN1C(=O)c1cc2c(C(=O)C(=O)N(C)C)cn(C)c2cc1Cl [TALMAPIMOD] was tested, and the Kd was > 30 µM (inactive). With CN1CCC(COc2cnc(-c3cccc(Cn4nc(-c5cccc(C#N)c5)ccc4=O)c3)nc2)CC1 [TEPOTINIB] the Kd was > 30 µM (inactive). For COc1cc2nccc(Oc3ccc(NC(=O)Nc4cc(C)on4)c(Cl)c3)c2cc1OC [TIVOZANIB], the Kd was > 30 µM (inactive).

What follows are compounds tested against T3, ATP-dependent RNA helicase DHX30 (Homo sapiens, UniProt Q7L2E3).
T3 sequence (Q7L2E3 whole entry): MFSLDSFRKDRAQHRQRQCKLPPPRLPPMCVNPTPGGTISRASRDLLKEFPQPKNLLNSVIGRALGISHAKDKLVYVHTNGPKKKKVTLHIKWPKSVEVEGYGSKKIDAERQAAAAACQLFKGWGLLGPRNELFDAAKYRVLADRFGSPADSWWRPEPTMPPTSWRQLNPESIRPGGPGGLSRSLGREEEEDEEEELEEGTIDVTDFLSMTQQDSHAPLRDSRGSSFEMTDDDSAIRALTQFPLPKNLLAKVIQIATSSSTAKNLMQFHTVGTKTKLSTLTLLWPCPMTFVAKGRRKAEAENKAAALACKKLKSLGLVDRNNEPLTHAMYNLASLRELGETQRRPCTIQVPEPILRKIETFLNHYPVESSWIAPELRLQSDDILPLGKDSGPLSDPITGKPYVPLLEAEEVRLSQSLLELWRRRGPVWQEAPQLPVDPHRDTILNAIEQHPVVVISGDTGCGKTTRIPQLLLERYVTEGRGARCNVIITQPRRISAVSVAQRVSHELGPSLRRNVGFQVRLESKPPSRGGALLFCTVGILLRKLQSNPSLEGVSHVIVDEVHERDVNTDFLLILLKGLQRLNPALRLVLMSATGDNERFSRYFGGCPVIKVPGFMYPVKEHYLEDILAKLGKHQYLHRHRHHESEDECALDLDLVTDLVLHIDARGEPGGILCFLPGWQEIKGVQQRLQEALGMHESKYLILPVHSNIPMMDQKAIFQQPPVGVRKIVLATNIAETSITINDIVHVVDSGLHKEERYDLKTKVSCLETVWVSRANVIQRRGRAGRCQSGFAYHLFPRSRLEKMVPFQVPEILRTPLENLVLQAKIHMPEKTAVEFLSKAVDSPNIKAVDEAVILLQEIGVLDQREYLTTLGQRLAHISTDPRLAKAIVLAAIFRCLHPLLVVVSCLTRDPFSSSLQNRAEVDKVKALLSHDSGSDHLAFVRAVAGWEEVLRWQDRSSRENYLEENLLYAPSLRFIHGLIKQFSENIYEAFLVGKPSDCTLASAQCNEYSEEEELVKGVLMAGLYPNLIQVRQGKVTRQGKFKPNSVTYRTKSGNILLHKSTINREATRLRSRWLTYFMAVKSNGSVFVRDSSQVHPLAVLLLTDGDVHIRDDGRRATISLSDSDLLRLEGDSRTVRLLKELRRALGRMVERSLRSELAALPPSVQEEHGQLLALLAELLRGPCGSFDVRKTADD
In the case of COc1cc(OC)c(/C=C/S(=O)(=O)Cc2ccc(OC)c(NCC(=O)O)c2)c(OC)c1 [RIGOSERTIB], the Kd is reported as > 30 µM (inactive). In the case of C[C@@H]1CN(Cc2ccc(F)cc2)[C@@H](C)CN1C(=O)c1cc2c(C(=O)C(=O)N(C)C)cn(C)c2cc1Cl [TALMAPIMOD], the Kd is reported as > 30 µM (inactive). For CN1CCC(COc2cnc(-c3cccc(Cn4nc(-c5cccc(C#N)c5)ccc4=O)c3)nc2)CC1 [TEPOTINIB], the Kd was > 30 µM (inactive).

These compounds were tested against Obg-like ATPase 1 (Homo sapiens, UniProt Q9NTK5).
Chain of Obg-like ATPase 1 (Q9NTK5 whole entry, looked up): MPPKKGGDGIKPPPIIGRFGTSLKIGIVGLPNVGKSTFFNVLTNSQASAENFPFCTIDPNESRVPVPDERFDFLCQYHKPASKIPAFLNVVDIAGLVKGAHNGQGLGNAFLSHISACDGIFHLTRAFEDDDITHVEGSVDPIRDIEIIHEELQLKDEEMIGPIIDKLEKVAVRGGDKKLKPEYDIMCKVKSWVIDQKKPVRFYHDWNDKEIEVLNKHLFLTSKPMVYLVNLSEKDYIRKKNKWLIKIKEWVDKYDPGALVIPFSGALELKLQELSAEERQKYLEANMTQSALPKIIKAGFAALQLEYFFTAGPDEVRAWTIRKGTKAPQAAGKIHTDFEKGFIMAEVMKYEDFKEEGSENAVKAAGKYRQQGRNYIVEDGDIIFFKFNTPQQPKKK
With COc1cc(OC)c(/C=C/S(=O)(=O)Cc2ccc(OC)c(NCC(=O)O)c2)c(OC)c1 [RIGOSERTIB] the Kd was > 30 µM (inactive). For C[C@@H]1CN(Cc2ccc(F)cc2)[C@@H](C)CN1C(=O)c1cc2c(C(=O)C(=O)N(C)C)cn(C)c2cc1Cl [TALMAPIMOD], the Kd was > 30 µM (inactive). In the case of CN1CCC(COc2cnc(-c3cccc(Cn4nc(-c5cccc(C#N)c5)ccc4=O)c3)nc2)CC1 [TEPOTINIB], the Kd is reported as > 30 µM (inactive). In the case of COc1cc2nccc(Oc3ccc(NC(=O)Nc4cc(C)on4)c(Cl)c3)c2cc1OC [TIVOZANIB], the Kd is reported as > 30 µM (inactive).
